# From paper PMC11211886 (Frontiers in Pharmacology, 2024)
# “And” between values parts separate entries of the source, which are not always exact repeats. Identical values can stand only once.
# Key:
# [1] = male, ICR, mouse, in vivo, iv
# Protocol: All intravenous and oral dose formulations were analyzed by liquid chromatography coupled with tandem mass spectrometry (LC-MS/MS) to confirm test article concentration and determine formulation stability.
# Animals had free access to food, and water was allowed ad libitum. […] The blood samples were collected with sodium heparin as an anticoagulant. The plasma samples were obtained from blood samples by centrifugation and stored at −80°C until analysis.
# A total of eighteen mice were divided into intravenous (IV) and oral (PO) administration groups, with nine animals in each group. The mice were fasted overnight with free access to water before dosing. […] After the mice were anesthetized with isoflurane, approximately 100 μL of whole blood was collected through the retro-orbital sinus and transferred to a 1.5 mL tube containing sodium heparin. The gathered blood samples were kept on ice until centrifugation. Plasma samples were harvested by centrifugation at 1,500 g for 10 min at 4°C.
# Pharmacokinetic parameters were calculated by a non-compartmental method using Thermo Kinetica® (Version 5.1 SP1, Thermo Electron Corporation, Philadelphia, Pennsylvania, United States). The area under the plasma concentration–time curve from time zero to the time of the last measurable sample (AUC0-t) or the plasma concentration–time curve from time zero to infinity (AUC0-inf) was calculated using the linear trapezoidal method.
# CYP2C8 = molecular target: T1, CYP2C8 (Homo sapiens, UniProt P10632); test: Reversible CYP inhibition in HLM, CYP2C8 (paclitaxel); assay type: in vitro ADME; conditions: for enzyme activity remaining: CYP2C8, HLM
# T1 construct: tissue Life Technologies (Durham, NC, USA); host or cells: human liver microsomes
# T1 sequence (P10632 1-490): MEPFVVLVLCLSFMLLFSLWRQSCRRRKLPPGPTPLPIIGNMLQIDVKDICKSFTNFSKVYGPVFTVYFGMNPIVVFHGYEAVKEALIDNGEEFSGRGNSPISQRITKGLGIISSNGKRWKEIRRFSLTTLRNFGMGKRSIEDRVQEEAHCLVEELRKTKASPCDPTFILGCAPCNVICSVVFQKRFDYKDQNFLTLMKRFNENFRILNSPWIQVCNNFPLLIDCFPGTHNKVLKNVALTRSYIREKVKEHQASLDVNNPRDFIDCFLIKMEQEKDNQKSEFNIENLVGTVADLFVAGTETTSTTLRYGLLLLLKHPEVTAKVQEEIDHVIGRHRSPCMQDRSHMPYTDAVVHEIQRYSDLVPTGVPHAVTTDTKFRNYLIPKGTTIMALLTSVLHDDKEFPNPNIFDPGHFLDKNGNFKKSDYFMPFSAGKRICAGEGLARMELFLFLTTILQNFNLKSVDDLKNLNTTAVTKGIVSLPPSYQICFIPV
# Protocol: (§1) The markers used to determine the activities of CYP isoforms were phenacetin O-deethylation for CYP1A2 (probe substrate: 50 µM phenacetin), bupropion hydroxylation for CYP2B6 (probe substrate: 70 µM bupropion), paclitaxel 6α-hydroxylation for CYP2C8 (probe substrate: 10 µM paclitaxel), diclofenac 4′-hydroxylation for CYP2C9 (probe substrate: 5 µM diclofenac), S-(+)-mephenytoin 4′-hydroxylation for CYP2C19 (probe substrate: 20 µM S-(+)-mephenytoin), dextromethorphan O-demethylation for CYP2D6 (probe substrate: 6 µM dextromethorphan), chlorzoxazone 6′-hydroxylation for CYP2E1 (probe substrate: 70 µM chlorzoxazone), and testosterone 6β-hydroxylation and midazolam 1′-hydroxylation for CYP3A4/5 (probe substrate: 45 µM testosterone and 5 µM midazolam). […] Alpha-naphthoflavone (0.04 µM), 2-phenyl-2-(1-piperidinyl)propane (5 µM), quercetin (1 µM), sulfaphenazole (0.5 µM), ticlopidine (4 µM), quinidine (0.2 µM), diethyldithiocarbamate (20 µM), and ketoconazole (0.05 µM) were used as positive inhibitors of CYP1A2, 2B6, 2C8, 2C9, 2C19, 2D6, 2E1, and 3A4, respectively. The vehicle control was prepared in the same composition as inhibitor solutions but free of inhibitors. The concentrations of probe substrates were close to Km values that were determined in-house and within the range recommended by the FDA ([Huang et al., 2007]). Reaction mixtures were incubated at 37°C for 5, 20, or 30 min, depending on the probe substrates of CYP isoforms. The reactions were terminated by adding cold acetonitrile containing IS, and the terminated incubation mixtures were centrifuged at 3,000 g for 10 min before LC-MS/MS analysis.
# CYP2D6 = molecular target: T2, CYP2D6 (Homo sapiens, UniProt P10635); test: Reversible CYP inhibition in HLM, CYP2D6 (dextromethorphan); assay type: in vitro ADME; conditions: for enzyme activity remaining: CYP2D6, HLM
# T2 construct: tissue Life Technologies (Durham, NC, USA); host or cells: human liver microsomes
# Protocol: as §1
# Caco-2 cell monolayers = test: Caco-2 bidirectional transport permeability; assay type: in vitro ADME, human
# Protocol: (§2) The passage number of cells used in this study was 39. Non-specific binding to the device surfaces and the aqueous solubility of test compounds were tested before the transport experiment. […] The integrity of the monolayer was estimated by measuring transepithelial electrical resistance (TEER). Only the monolayers with TEER over 150 Ω were used for the studies.
# [2] = Caco-2 bidirectional transport permeability; assay type: in vitro ADME, human; conditions: human
# Protocol: as §2
# [3] = Human PK projection by allometric scaling; conditions: allometric scaling with correction of MLP and fu
# Excerpt: Translational prediction of human plasma total clearance (CL) and volume of distribution at steady state (Vss) was projected using the AS approach for different preclinical species (mice, rats, dogs, and monkeys). The mean value of unbound plasma fraction (fu) in animals was applied to transform pharmacokinetic parameters (Vss or CL) to the corresponding free drug clearance (CLu) and free drug volume of distribution (Vss,u). The CLu in preclinical species was scaled to CLu in humans according to the following equations with consideration of the maximum lifespan potential (MLP) as a correction factor according to the rule of exponents (RoEs) ([Mahmood and Balian, 1996]), and Vss,u in preclinical species was scaled to Vss,u in humans simply based on BW according to the following equations. Both CLu and Vss,u in humans were converted to CL and Vss using the mean value of fu in humans. CLu×MLP=a×BW^b, log (CLu×MLP)=log a+b log BW, Vss,u=a×BW^b, log (Vss,u)=log a+b log BW,
# where BW represents the body weight of the standard species (0.02, 0.2, 10, 4, and 70 kg for mice, rats, dogs, cynomolgus monkeys, and humans, respectively), a represents allometric coefficients, and b is allometric exponents.
# [4] = HLM, reversible, without pre-incubation
# T2 sequence (P10635 whole entry): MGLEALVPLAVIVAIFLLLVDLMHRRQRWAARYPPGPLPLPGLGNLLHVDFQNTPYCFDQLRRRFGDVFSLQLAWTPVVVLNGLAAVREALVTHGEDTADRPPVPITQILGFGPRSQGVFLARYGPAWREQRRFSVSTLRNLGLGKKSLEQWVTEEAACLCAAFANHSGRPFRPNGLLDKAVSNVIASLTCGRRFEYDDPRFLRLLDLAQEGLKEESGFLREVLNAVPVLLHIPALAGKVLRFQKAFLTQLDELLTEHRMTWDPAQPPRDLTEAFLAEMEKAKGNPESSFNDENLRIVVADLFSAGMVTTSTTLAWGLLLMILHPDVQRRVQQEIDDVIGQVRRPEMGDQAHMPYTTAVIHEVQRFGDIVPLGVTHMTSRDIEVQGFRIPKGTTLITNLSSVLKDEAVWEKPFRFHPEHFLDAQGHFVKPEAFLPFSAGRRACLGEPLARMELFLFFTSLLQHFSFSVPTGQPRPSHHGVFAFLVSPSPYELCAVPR
structure (smiles),measurement,setting,value
C[C@H](Nc1ncnc(N)c1C#N)c1cc2ncc(Cl)n2nc1-c1ccccc1 [Amdizalisib],CL as % of the hepatic blood flow,[1],16.3%
same,enzyme activity remaining,CYP2C8; 0.08 μM,110% and 105%
same,enzyme activity remaining,CYP2C8; 0.4 μM,105% and 109%
same,enzyme activity remaining,CYP2C8; 2 μM,98.8% and 104%
same,enzyme activity remaining,CYP2C8; 10 μM,67.3% and 76.5%
same,enzyme activity remaining,CYP2C8; 50 μM,38.0% and 39.6%
same,IC50,CYP2C8; [4],30.4 µM
same,enzyme activity remaining,CYP2D6; 0.08 μM,103%
same,enzyme activity remaining,CYP2D6; 0.4 μM,103% and 107%
same,enzyme activity remaining,CYP2D6; 2 μM,104% and 98.0%
same,enzyme activity remaining,CYP2D6; 10 μM,98.0% and 98.6%
same,enzyme activity remaining,CYP2D6; 50 μM,80.0% and 84.5%
same,IC50,CYP2D6; [4],> 50 µM
same,Transporter substrate,Caco-2 cell monolayers,Not a substrate of P-gp and BCRP
same,"Papp A→B at 30 min, 10 µM",[2],45.7 ×10⁻⁶ cm/s
same,"Papp A→B at 60 min, 5 µM",[2],38.5 ×10⁻⁶ cm/s
same,"Papp A→B at 60 min, 10 µM",[2],39.9 ×10⁻⁶ cm/s
same,"Papp A→B at 60 min, 20 µM",[2],40.9 ×10⁻⁶ cm/s
same,"Papp A→B at 60 min, 40 µM",[2],36.3 ×10⁻⁶ cm/s
same,"Papp A→B at 60 min, 60 µM",[2],42.2 ×10⁻⁶ cm/s
same,"Papp A→B at 90 min, 10 µM",[2],38.9 ×10⁻⁶ cm/s
same,"Papp A→B at 120 min, 10 µM",[2],36.9 ×10⁻⁶ cm/s
same,"Papp A→B at 150 min, 10 µM",[2],37.1 ×10⁻⁶ cm/s
same,"Papp B→A at 30 min, 10 µM",[2],69.5 ×10⁻⁶ cm/s
same,"Papp B→A at 60 min, 5 µM",[2],50.4 ×10⁻⁶ cm/s
same,"Papp B→A at 60 min, 20 µM",[2],52.3 ×10⁻⁶ cm/s
same,"Papp B→A at 60 min, 40 µM",[2],45.4 ×10⁻⁶ cm/s
same,"Papp B→A at 60 min, 60 µM",[2],47.9 ×10⁻⁶ cm/s
same,"Papp B→A at 60 min, 80 µM",[2],45.4 ×10⁻⁶ cm/s
same,"Papp B→A at 90 min, 10 µM",[2],57.1 ×10⁻⁶ cm/s
same,"Papp B→A at 120 min, 10 µM",[2],56 ×10⁻⁶ cm/s
same,"Papp B→A at 150 min, 10 µM",[2],55.6 ×10⁻⁶ cm/s
same,"Papp A→B at 60 min, 80 µM","[2]; substrate 80 µM, 60 min",47.7 ×10⁻⁶ cm/s
same,predicted human CL,[3],2.57 mL/min/kg
